Measured values reported in PubChem BioAssay (NCI).
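Each compound was tested at five concentrations against cells in 96-well plates for 48 hours. At the TGI there is no net growth.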

Key:
Experiment in all cases: NCI anticancer screen, dose series, 48 h
UACC-257 melanoma = system: UACC-257 melanoma
MDA-MB-435 = system: MDA-MB-435
IGROV1 ovarian = system: IGROV1 ovarian
LOX IMVI melanoma = system: LOX IMVI melanoma
SK-MEL-5 melanoma = system: SK-MEL-5 melanoma
CCRF-CEM leukemia = system: CCRF-CEM leukemia
HL-60(TB) leukemia = system: HL-60(TB) leukemia
NCI-H226 lung = system: NCI-H226 lung
OVCAR-5 ovarian = system: OVCAR-5 ovarian
NCI-H522 lung = system: NCI-H522 lung
EKVX NSCLC = system: EKVX NSCLC
U251 CNS = system: U251 CNS
COLO 205 colon = system: COLO 205 colon
OVCAR-3 ovarian = system: OVCAR-3 ovarian
HOP-92 NSCLC = system: HOP-92 NSCLC
SK-MEL-2 melanoma = system: SK-MEL-2 melanoma
MALME-3M melanoma = system: MALME-3M melanoma
PC-3 prostate = system: PC-3 prostate
SF-539 CNS = system: SF-539 CNS
ACHN renal = system: ACHN renal
HS 578T breast = system: HS 578T breast
CAKI-1 renal = system: CAKI-1 renal
NCI-H460 lung = system: NCI-H460 lung
KM12 colon = system: KM12 colon
SNB-75 CNS = system: SNB-75 CNS
NCI-H23 lung = system: NCI-H23 lung
NCI/ADR-RES ovarian = system: NCI/ADR-RES ovarian
MCF7 breast = system: MCF7 breast
SK-OV-3 ovarian = system: SK-OV-3 ovarian
MOLT-4 leukemia = system: MOLT-4 leukemia
SNB-19 CNS = system: SNB-19 CNS
SF-268 CNS = system: SF-268 CNS
T-47D breast = system: T-47D breast
MDA-MB-231 breast = system: MDA-MB-231 breast
MDA-N = system: MDA-N
OVCAR-4 ovarian = system: OVCAR-4 ovarian
786-0 renal = system: 786-0 renal
HCT-116 colon = system: HCT-116 colon
DU-145 prostate = system: DU-145 prostate
TK-10 renal = system: TK-10 renal
HCT-15 colon = system: HCT-15 colon
M14 melanoma = system: M14 melanoma
RPMI-8226 leukemia = system: RPMI-8226 leukemia
HCC-2998 colon = system: HCC-2998 colon
UO-31 renal = system: UO-31 renal
SF-295 CNS = system: SF-295 CNS
K-562 leukemia = system: K-562 leukemia
A498 renal = system: A498 renal
SN12C renal = system: SN12C renal
SW-620 colon = system: SW-620 colon
HT29 colon = system: HT29 colon
OVCAR-8 ovarian = system: OVCAR-8 ovarian
SK-MEL-28 melanoma = system: SK-MEL-28 melanoma
A549 NSCLC = system: A549 NSCLC
HOP-62 NSCLC = system: HOP-62 NSCLC

CN(C)CCCNC(=O)CNC(=O)c1cc(NC(=O)c2cc(NC(=O)c3cc(NC(=O)CCNC(=O)c4cc(NC(=O)c5cc(NC(=O)c6nccn6C)cn5C)cn4C)cn3C)cn2C)cn1C
TGI (UACC-257 melanoma): > 100 µM
TGI (MDA-MB-435): > 100 µM
TGI (IGROV1 ovarian): > 100 µM
TGI (LOX IMVI melanoma): > 100 µM
TGI (SK-MEL-5 melanoma): > 100 µM
TGI (CCRF-CEM leukemia): 49.2 µM
TGI (HL-60(TB) leukemia): 94.1 µM
TGI (NCI-H226 lung): > 100 µM
TGI (OVCAR-5 ovarian): > 100 µM
TGI (NCI-H522 lung): > 100 µM
TGI (EKVX NSCLC): > 100 µM
TGI (U251 CNS): > 100 µM
TGI (COLO 205 colon): > 100 µM
TGI (OVCAR-3 ovarian): > 100 µM
TGI (HOP-92 NSCLC): > 100 µM
TGI (SK-MEL-2 melanoma): > 100 µM
TGI (MALME-3M melanoma): > 100 µM
TGI (PC-3 prostate): > 100 µM
TGI (SF-539 CNS): > 100 µM
TGI (ACHN renal): > 100 µM
TGI (HS 578T breast): > 100 µM
TGI (CAKI-1 renal): > 100 µM
TGI (NCI-H460 lung): > 100 µM
TGI (KM12 colon): > 100 µM
TGI (SNB-75 CNS): > 100 µM
TGI (NCI-H23 lung): > 100 µM
TGI (NCI/ADR-RES ovarian): > 100 µM
TGI (MCF7 breast): > 100 µM
TGI (SK-OV-3 ovarian): > 100 µM
TGI (MOLT-4 leukemia): 57 µM
TGI (SNB-19 CNS): > 100 µM
TGI (SF-268 CNS): > 100 µM
TGI (T-47D breast): > 100 µM
TGI (MDA-MB-231 breast): > 100 µM
TGI (MDA-N): > 100 µM
TGI (OVCAR-4 ovarian): > 100 µM
TGI (786-0 renal): > 100 µM
TGI (HCT-116 colon): > 100 µM
TGI (DU-145 prostate): > 100 µM
TGI (TK-10 renal): > 100 µM
TGI (HCT-15 colon): > 100 µM
TGI (M14 melanoma): > 100 µM
TGI (RPMI-8226 leukemia): > 100 µM
TGI (HCC-2998 colon): > 100 µM
TGI (UO-31 renal): > 100 µM
TGI (SF-295 CNS): > 100 µM
TGI (K-562 leukemia): > 100 µM
TGI (A498 renal): > 100 µM
TGI (SN12C renal): > 100 µM
TGI (SW-620 colon): > 100 µM
TGI (HT29 colon): > 100 µM
TGI (OVCAR-8 ovarian): > 100 µM
TGI (SK-MEL-28 melanoma): > 100 µM
TGI (A549 NSCLC): > 100 µM
TGI (HOP-62 NSCLC): > 100 µM
